We go through 89 compounds from ChEMBL document CHEMBL5604063, “ASAP - DENV-2 NS2B-NS3 protease fluorescence dose response” (2024).

A word on the IC50: it is the concentration at which inhibition is half-maximal.

“And” between values parts separate entries of the source, which are not always exact repeats. Equal values may be shown once.

This assay has as its target Genome polyprotein (dengue virus type 2, UniProt P29990). Type of assay: functional, Thailand/16681/1984.

Genome polyprotein, sequence (P29990 1346-1475 limits assumed): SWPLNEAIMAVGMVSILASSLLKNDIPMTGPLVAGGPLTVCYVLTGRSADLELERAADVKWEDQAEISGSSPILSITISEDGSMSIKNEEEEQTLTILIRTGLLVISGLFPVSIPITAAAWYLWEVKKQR
Genome polyprotein, sequence (P29990 1476-2093 limits assumed): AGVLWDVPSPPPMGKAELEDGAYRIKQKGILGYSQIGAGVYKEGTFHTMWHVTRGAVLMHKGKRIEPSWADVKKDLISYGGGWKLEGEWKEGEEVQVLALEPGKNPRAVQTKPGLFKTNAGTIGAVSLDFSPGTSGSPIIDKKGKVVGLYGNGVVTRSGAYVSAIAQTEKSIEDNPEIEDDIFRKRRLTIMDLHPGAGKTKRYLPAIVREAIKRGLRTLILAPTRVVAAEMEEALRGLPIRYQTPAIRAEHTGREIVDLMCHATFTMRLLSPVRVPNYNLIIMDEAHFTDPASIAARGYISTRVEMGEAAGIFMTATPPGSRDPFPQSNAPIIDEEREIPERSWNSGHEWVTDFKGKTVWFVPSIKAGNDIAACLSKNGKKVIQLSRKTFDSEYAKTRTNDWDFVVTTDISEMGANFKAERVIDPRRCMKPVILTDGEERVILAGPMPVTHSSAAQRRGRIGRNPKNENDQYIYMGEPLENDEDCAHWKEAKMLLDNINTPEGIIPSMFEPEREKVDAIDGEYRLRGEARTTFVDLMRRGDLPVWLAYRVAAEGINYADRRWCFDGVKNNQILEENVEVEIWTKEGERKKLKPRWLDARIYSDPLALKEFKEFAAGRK

Turning to `Cn1nc(NC(=O)c2cc(Cl)cc(NC(=O)OCc3ccccc3)c2)c2c1CNC2`, the concentration for half-maximal inhibition (IC50) came to 89.1 µM.

`NCc1cccc(NC(=O)[C@H](NC(=O)OCc2ccccc2)c2cccc(OCc3ccccn3)c2)c1` returned an IC50 of more than 99.5 µM. As for `c1ccc2sc(C3CCN([C@H]4Cc5[nH]c6ccccc6c5C4)CC3)nc2c1`, the figure is more than 99.5 µM. As for `NCc1cccc(NC(=O)[C@@H](NC(=O)OCc2ccccc2)c2ccc(-c3cccc(F)c3)cc2)c1`, the figure is 8.05 µM and 6.08 µM and 6.21 µM; as for `NCc1cccc(NC(=O)[C@@H](NC(=O)OCc2ccccc2)c2ccc(-c3cccc4c3CCO4)cc2)c1`, 27.8 µM.

Turning to `FC1(c2cccnc2)CN(Cc2c[nH]c3ccccc23)C1`, the IC50 is more than 99.5 µM. To `NCc1cccc(NC(=O)[C@H]2c3ccc(OCc4ccccc4)cc3CCN2C(=O)OCc2ccccc2)c1` belongs more than 99.5 µM. As for `CCn1cc(-c2cnccc2C)nc(N2CC[C@@H](CO)C2)c1=O`, the figure is more than 99.5 µM; as for `O=Cc1ccc(N2CCC(C(=O)N3CCN(CCc4ccccc4)CC3)CC2)cc1`, 35.6 µM; as for `CC(C)c1cc(S(=O)(=O)N[C@H](C(=O)Nc2cccc(CN)c2)c2ccc(OCc3ccccc3)cc2)on1`, more than 99.5 µM. To `O=C(O)c1cc(Cl)ccc1S(=O)(=O)NC1CCN(Cc2ccccn2)CC1` belongs more than 99.5 µM; to `NCc1cccc(NC(=O)[C@@H](NC(=O)OCc2ccccc2)c2ccc(-c3cccc4nonc34)cc2)c1`, 11.6 µM and 5.73 µM; to `O=C(NS(=O)(=O)C1CC1)c1cc(Cl)ccc1NS(=O)(=O)c1ccc(Oc2ccccc2Cl)cc1`, 7.33 µM.

Compound `CN1CCn2nc(NC(=O)c3cc(Cl)cc(NC(=O)OCc4ccccc4)c3)cc2C1` yielded an IC50 of more than 99.5 µM. As for `N[C@]12CCC[C@](C(=O)NCc3ccc4c(c3)CCNCC4)(CC1)C2`, the figure is more than 99.5 µM. As for `CC(C)(C)OC(=O)NCc1cccc(NC(=O)c2cc(N)cc(Cl)c2)c1`, the figure is more than 99.5 µM. With `O=C(NCc1nccs1)c1sccc1Cl`, the half-inhibitory concentration (IC50) was more than 99.5 µM. As for `Cc1cc(C(=O)O)c(NS(=O)(=O)c2ccc(Oc3ccccc3)cc2)cc1F`, the figure is 24.9 µM; as for `O=C(O)c1cc(Cl)ccc1NS(=O)(=O)c1ccc(OCc2cccnc2)cc1`, more than 99.5 µM.

`Cc1nnc([C@H](C)n2cc(C3CCNCC3)c(C)n2)o1` gave an IC50 of more than 99.5 µM. To `Cc1cc(C(=O)N[C@@H]2CC[C@@H]3CN(C)C[C@@H]32)sc1C=O` belongs more than 99.5 µM; to `O=C(Nc1ccc2c(c1)B(O)OC2)c1cccc(OCc2c(Cl)cccc2Cl)c1`, more than 99.5 µM. To `CCCNC(=O)Cn1ccnc(N2CC[C@H](CO)C2)c1=O` belongs more than 99.5 µM; to `CCn1cc(-c2cccc(OC)c2F)nc(N2CC[C@@H](CO)C2)c1=O`, more than 99.5 µM. The compound `C=CC[C@H]1NCc2cc(NC(=O)c3ccc4c(c3)CC(=O)N4)ccc21` registered an IC50 of more than 99.5 µM. To `O=C(Nc1cc(Cl)cc(C(=O)Nc2cc3n(n2)CCNC3)c1)OCc1ccccc1` belongs more than 99.5 µM.

For the compound `CC(C)(C)c1ccc(Cl)cc1C(=O)Nc1ccc2c(c1)CNC2`, the IC50 was more than 99.5 µM. To `O=C(c1cc(Cl)ccc1NS(=O)(=O)c1ccc(Oc2ccccc2Cl)cc1)N1CCC[C@H](O)C1` belongs 63.6 µM. Compound `CCn1cc(C(=O)NCc2ccccc2)nc(N2CC[C@@H](CO)C2)c1=O` displayed an IC50 of more than 99.5 µM.

On to `Cc1n[nH]cc1-c1ccc([C@@H](NC(=O)OCc2ccccc2)C(=O)Nc2cccc(CN)c2)cc1`, for which the half-maximal inhibitory concentration (IC50) was more than 99.5 µM. For the compound `Cc1c(C(=O)Nc2cc(CCCN)ccn2)cc(C#N)n1C`, the half-inhibitory concentration (IC50) was more than 99.5 µM.

`NCc1cccc(NC(=O)[C@@H](NC(=O)OCc2ccccc2)c2cccc(OCC3CCC3)c2)c1` had an IC50 of 44 µM.

As for `CC(C)c1cnc(COc2ccc(S(=O)(=O)Nc3ccc(Cl)cc3C(=O)O)cc2)o1`, the midpoint of inhibition, the IC50, lay at 55.7 µM. To `CCn1cc(-c2cnc3ccnn3c2)nc(N2CC[C@@H](CO)C2)c1=O` belongs more than 99.5 µM; to `O=C(N[C@@H](C(=O)NC1CNC1)c1ccc(OCc2ccccc2)cc1)OCc1ccccc1`, more than 99.5 µM; to `CCc1ccc(-c2ccc([C@@H](NC(=O)OCc3ccccc3)C(=O)Nc3cccc(CN)c3)cc2)cc1`, 6.61 µM. To `CC(C)NC(=O)[C@H](Nc1ccc2c(c1)CNC2)c1cc(Cl)cc2[nH]c(-c3ccccc3)nc12` belongs 10.2 µM and 4.1 µM and 35.8 µM; to `Cc1cc(C(=O)O)c(NS(=O)(=O)c2ccc(Oc3ccccc3Cl)cc2)cc1F`, 8.69 µM.

In turn, `C[C@H]1CN(C(=O)Cc2ccc(C=O)[nH]2)CCN1C1CCCC1` returned an IC50 of more than 99.5 µM.

Turning to `COC(=O)c1cc(Cl)ccc1NS(=O)(=O)c1ccc(Cl)nc1`, the IC50 is more than 99.5 µM.

Regarding `O=C(O)c1cc(Cl)ccc1NS(=O)(=O)c1ccc(Oc2ccccc2Cl)nc1`, the IC50 stood at 46.9 µM. To `Cn1ccc(-c2n[nH]cc2CN2CCC(c3nc4ccccc4s3)CC2)n1` belongs more than 99.5 µM; to `Cc1cc(C(=O)Nc2cc(-c3cccnc3)ccn2)nn1CCN`, more than 99.5 µM; to `CN1CCC[C@H]1COc1cccc([C@@H](NC(=O)OCc2ccccc2)C(=O)Nc2cccc(CN)c2)c1`, more than 99.5 µM. As for `O=C(NCc1cc(Cl)ccc1NS(=O)(=O)c1ccc(Oc2ccccc2Cl)cc1)C1CC1`, the figure is more than 99.5 µM; as for `NCc1cccc(NC(=O)[C@H]2c3ccc(Br)cc3CCN2C(=O)OCc2ccccc2)c1`, more than 99.5 µM. To `CCCC[C@H](NC(C)=O)C(=O)N[C@H](C(=O)Nc1ccc(C(N)=O)cc1)c1ccc(OCc2ccccc2)cc1` belongs more than 99.5 µM; to `COC[C@@H](C)CNC(=O)c1cc(Cl)ccc1NS(=O)(=O)c1ccc(Oc2ccccc2Cl)cc1`, more than 99.5 µM; to `NCc1cccc(NC(=O)[C@H](NC(=O)OCc2ccccc2)c2ccc(Br)cc2F)c1`, 66 µM. `CS(=O)(=O)Nc1cccc(C(=O)Nc2ccc3c(c2)CNC3)c1` showed a half-maximal inhibitory concentration (IC50) of more than 99.5 µM. To `O=C(O)c1cc(Cl)ccc1S(=O)(=O)Nc1ccc(F)c(NC(=O)C2CC2)c1` belongs more than 99.5 µM. `Cc1ncc(COc2ccc([C@H](NC(=O)OCc3ccccc3)C(=O)Nc3cccc(CN)c3)cc2)cn1` showed a concentration for half-maximal inhibition (IC50) of more than 99.5 µM. Compound `CCn1c(=O)c(N2CC[C@@H](Cc3ccncc3)C2)nc2ccccc21` returned an IC50 of more than 99.5 µM. To `CCn1ccnc(N2CC[C@H](c3ccncc3)C2)c1=O` belongs more than 99.5 µM; to `O=C(O)c1cc(Cl)ccc1S(=O)(=O)Nc1ccc(Oc2ccccn2)cc1`, more than 99.5 µM; to `CCn1cc(-c2cnn(-c3ccccc3)c2)nc(N2CC[C@@H](CO)C2)c1=O`, more than 99.5 µM. The compound `O=C(O)c1cc(Cl)cc(Cl)c1S(=O)(=O)Nc1ccc(Oc2ccccc2Cl)cc1` registered a half-inhibitory concentration (IC50) of more than 99.5 µM.

Compound `O=C(O)c1cccc(NC(=O)c2cccc(OCc3c(Cl)cccc3Cl)c2)c1` returned an IC50 of more than 99.5 µM. For the compound `CCOCCNC(=O)c1cc(Cl)ccc1NS(=O)(=O)c1ccc(Oc2ccccc2Cl)cc1`, the 50% inhibitory concentration (IC50) is 20 µM and 20.5 µM. As for `CCn1c(=O)c(N2C[C@H]3CCS(=O)(=O)[C@H]3C2)nc2ccccc21`, the figure is more than 99.5 µM. As for `O=C(c1cc(Cl)ccc1NS(=O)(=O)c1ccc(Oc2ccccc2Cl)cc1)N1CC[C@H](CO)C1`, the figure is 91.2 µM; as for `NCCc1ccc(NC(=O)c2cc(Cl)cc(NC(=O)OCc3ccccc3)c2)cc1`, 30.9 µM; as for `CCCCCC(=O)N[C@H](C(=O)NCc1cccc(CN)c1)c1ccc(OCc2ccccc2)cc1`, 84.6 µM. As for `COc1ccc(N2CCC(NS(=O)(=O)c3ccc(Cl)cc3C(=O)O)CC2)cc1`, the figure is more than 99.5 µM; as for `CCc1ccc([C@@H](NC(=O)OCc2ccccc2)C(=O)Nc2cccc(CN)c2)cc1`, more than 99.5 µM. With `CCn1cc(-c2ccccc2C(C)C)nc(N2CC[C@@H](CO)C2)c1=O`, the IC50 is more than 99.5 µM. To `CCn1cc(-c2ccncc2F)nc(N2CC[C@@H](CO)C2)c1=O` belongs more than 99.5 µM; to `Cc1ccc(F)c2c1CCN(Cc1ccn(C3CNC3)c1)C2`, more than 99.5 µM; to `NCc1cccc(NC(=O)[C@@H](NC(=O)OCc2ccccc2)c2cc(F)cc(F)c2)c1`, more than 99.5 µM. Take `Cc1ccc([C@H]2[C@H](C)CN2C(=O)c2ccc(C(F)(F)CN)cc2)cc1`: the IC50 was more than 99.5 µM. As for `CN1Cc2ccc(CNC(=O)[C@@H](NC(=O)OCc3ccccc3)c3ccc(OCc4ccccc4)cc3)cc2C1`, the figure is more than 99.5 µM.

On to `O=Cc1ccc(N2CCC(C(=O)NCc3cccc(-c4ccccc4)c3)CC2)cc1`, for which the IC50 stood at 53.3 µM.

`CCCCCN(C)C(=O)c1cc(Cl)ccc1NS(=O)(=O)c1ccc(Oc2ccccc2Cl)cc1` gave an IC50 of 17.8 µM. As for `COc1cncc(CNC(=O)[C@@H](NC(=O)OCc2ccccc2)c2ccc(OCc3ccccc3)cc2)c1`, the figure is more than 99.5 µM; as for `CC(=O)N1CCN([C@H]2CC[C@H](NS(=O)(=O)c3ccc(Cl)cc3C(=O)O)CC2)CC1`, more than 99.5 µM; as for `Cc1cc(F)cc(N(C)C(=O)c2ccc(C3(CN)CC3)cc2)c1`, more than 99.5 µM. As for `O=c1ccc(-n2cncn2)nn1CC=Cc1ccccc1`, the figure is more than 99.5 µM; as for `CN(C)Cc1csc(NC(=O)[C@@H](NC(=O)OCc2ccccc2)c2ccc(OCc3ccccc3)cc2)n1`, more than 99.5 µM; as for `CCOC(=O)c1cc(C(=O)N[C@H](C(=O)Nc2cccc(CN)c2)c2ccc(OCc3ccccc3)cc2)n(C)n1`, 24.3 µM and 24.8 µM. Consider `Nc1ccc(C(=O)Nc2nc3ccccc3s2)nc1`, for which the half-inhibitory concentration (IC50) was more than 99.5 µM. To `Cc1nc(CCCNCc2n[nH]c3ccccc23)cs1` belongs more than 99.5 µM.

Take `C[C@]1(C(=O)N[C@H](C(=O)Nc2cccc(CN)c2)c2ccc(OCc3ccccc3)cc2)COc2ccccc2O1`: the IC50 stood at 52.3 µM. In other words, the double-digit micromolar range. As for `O=C(NC[C@H]1CCCO1)c1cc(Cl)ccc1NS(=O)(=O)c1ccc(Oc2ccccc2Cl)cc1`, the figure is more than 99.5 µM; as for `Cc1ncsc1C(=O)N[C@H](C(=O)Nc1cccc(CN)c1)c1ccc(OCc2ccccc2)cc1`, more than 99.5 µM; as for `NCc1cccc(NC(=O)C[C@H](NC(=O)OCc2ccccc2)c2ccc(OC(F)(F)F)cc2)c1`, 42.9 µM and 44.6 µM. To `CCn1c(=O)c(N2CC[C@@H](CN3CCCCC3)C2)nc2ccccc21` belongs more than 99.5 µM. To `NCc1cccc(NC(=O)c2cc(NC(=O)OCc3ccccc3)cc3c2OC(F)(F)O3)c1` belongs more than 99.5 µM. Regarding `Cc1cnn(-c2cc(C(=O)O)c(NS(=O)(=O)c3ccc(Oc4ccccc4Cl)cc3)cc2F)c1`, it took 6.2 µM to reach half-maximal inhibition (IC50). This counts as single-digit micromolar. To `N#Cc1ccc(S(=O)(=O)CCn2nc(-c3ccco3)oc2=O)cc1` belongs more than 99.5 µM.
